Converted amounts (≈) assume the structure as drawn. Where two headings read alike, the source gives them in different places.
Tests used:
[1] = Metabolic stability in mouse liver microsomes; assay type: in vitro ADME; settings: read-out: Mouse MS Stability t1/2
Experimental: (§1) ADME studies: Compound A and the compounds of the disclosure were tested for aqueous solubility (KSOL), metabolic stability (human and mouse […]) and permeability (Caco-2 and/or MDR1-MDCK cells) to provide an initial indication of oral bioavailability.
(§2) The MDCK-MDR1 permeability A ->B is shown in Table 2 below, where A represents 5-10 cm/s×10^−6; B represents 1-5 cm/s×10^−6; and C represents <1 cm/ss×10^−6. The metabolic stability half time, in both mouse and human hepatocytes, is also shown in Table 2 below, where A′ represents 100-200 minutes; B′ represents 200-300 minutes; and C′ represents >300 minutes.

[2] = test system: IFNβ production in THP-1 cells; assay: IFNβ ELISA in THP-1 cells; assay type: cell-based, human; settings: Homo sapiens; THP-1 cells
Method in brief: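 THP-1 cells stimulated with dsDNA or cGAMP (STING activation bypassing cGAS) in the presence of compound; IFNβ secreted into medium quantified by ELISA. IC50 values reported in potency bins.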

[3] = Metabolic stability in human liver microsomes; assay type: in vitro ADME; settings: read-out: Human MS Stability t1/2
Experimental: as §1, §2

[4] = Kinetic aqueous solubility (KSOL) in PBS, pH 7.4; assay type: physicochemical; settings: aqueous buffer, kinetic from dmso stock
Experimental: as §1
(§3) The favorable physicochemical properties are reflected in promising results in in vitro ADME tests. […] Metabolic stability, which was routinely measured with mouse and human hepatocytes, is outstanding, with t, greater than 2 hours for all of the compounds of the disclosure in which it has been measured. Cell permeability was measured using MDCK cells expressing human MDR1 (P-glycoprotein) to assess passive permeability as well as active transport out of the cell. […] Numerous compounds in Table 1 meet these permeability criteria, which is consistent with their design for TPSA <140 Å^2 and increased lipophilicity.

[5] = test system: MDCK cells expressing human MDR1 (P-glycoprotein); assay: MDCK-MDR1 permeability A→B; assay type: in vitro ADME, Canine
Method in brief: (§4)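 Permeability measured apical-to-basolateral in MDCK cells expressing human MDR1, reported as binned ranges in cm/s×10^−6. Metabolic stability determined as half-life in mouse and human hepatocytes, reported as binned ranges in minutes.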

[6] = test system: RIG-1 signaling; assay: Reporter gene assay IRF30Luc (RIG-1); assay type: cell-based; settings: concentrations as high as 100 μM
Experimental: (§5) CETSA was also used to confirm that the compounds are binding to cGAS in cells; THP-1 cells are used for this analysis. Compounds were tested in dose response mode by incubating with cells for 1.5 hours at 37° C., followed by pelleting and re-suspending in PBS, heating to 51.5° C. for 3 min and cooling to room temp. Cells were then lysed, debris, including denatured cGAS, was pelleted and the supernatant was analyzed for soluble cGAS by Western Blot using anti-cGAS primary Ab (Cell Signaling). Band intensity was analyzed using Image J software. Stimulation with cGAMP directly activates STING, circumventing cGAS; this was used to determine if compounds had effects on downstream components of cGAS/STING signaling. The IFN-6 ELISA was used as the primary measure of cellular potency and selectivity (Table 3) and used the reporter gene assays for assessing off-target activity with other pattern recognition receptors.
(§6) The reporter gene assays were used to assess off-target activity with IRF30Luc (RIG-1) or NFKB (TLR4); CellTiter Glo (ATP levels) and Presto Blue (reducing equivalents) were used to assess cytotoxicity; all assays were performed in dose response mode. […] The inventors recently began using human PBMCs to assess cellular potency in a more physiologically relevant context.

[7] = Cytotoxicity, CellTiter Glo (ATP levels) and Presto Blue (reducing equivalents); assay type: cell-based; settings: concentrations as high as 100 μM
Experimental: as §6

[8] = test system: isolated Luc reporter enzyme; assay: Isolated Luc reporter enzyme inhibition; assay type: biochemical; settings: at 80 μM
[9] = Metabolic stability in mouse hepatocytes; assay type: in vitro ADME; settings: read-out: Mouse MS Stability t1/2
Experimental: as §1, §3, §2

[10] = biological target: isolated SEAP reporter enzyme (Homo sapiens, UniProt P05187); assay: Isolated SEAP reporter enzyme inhibition; assay type: biochemical
Chain of isolated SEAP reporter enzyme (P05187 23-511 limits assumed): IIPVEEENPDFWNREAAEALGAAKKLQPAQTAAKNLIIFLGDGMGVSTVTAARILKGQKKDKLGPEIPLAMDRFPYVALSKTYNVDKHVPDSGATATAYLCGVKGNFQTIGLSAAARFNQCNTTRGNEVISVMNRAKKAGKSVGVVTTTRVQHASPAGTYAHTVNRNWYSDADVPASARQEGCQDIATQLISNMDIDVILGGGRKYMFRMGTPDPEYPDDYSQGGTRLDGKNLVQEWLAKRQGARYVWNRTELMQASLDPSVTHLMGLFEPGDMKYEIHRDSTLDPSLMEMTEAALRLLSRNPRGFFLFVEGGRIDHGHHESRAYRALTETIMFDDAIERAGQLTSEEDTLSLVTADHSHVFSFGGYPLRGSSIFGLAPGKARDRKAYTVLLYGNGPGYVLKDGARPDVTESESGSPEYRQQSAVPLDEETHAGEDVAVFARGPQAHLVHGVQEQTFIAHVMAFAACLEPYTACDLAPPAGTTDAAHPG

[11] = biological target: T1, cGAS (Homo sapiens, UniProt Q8N884); assay: Cellular thermal shift assay (CETSA) in THP-1 cells; assay type: cell-based; settings: heat treatment 51.5 °C
T1 sequence (Q8N884 whole entry): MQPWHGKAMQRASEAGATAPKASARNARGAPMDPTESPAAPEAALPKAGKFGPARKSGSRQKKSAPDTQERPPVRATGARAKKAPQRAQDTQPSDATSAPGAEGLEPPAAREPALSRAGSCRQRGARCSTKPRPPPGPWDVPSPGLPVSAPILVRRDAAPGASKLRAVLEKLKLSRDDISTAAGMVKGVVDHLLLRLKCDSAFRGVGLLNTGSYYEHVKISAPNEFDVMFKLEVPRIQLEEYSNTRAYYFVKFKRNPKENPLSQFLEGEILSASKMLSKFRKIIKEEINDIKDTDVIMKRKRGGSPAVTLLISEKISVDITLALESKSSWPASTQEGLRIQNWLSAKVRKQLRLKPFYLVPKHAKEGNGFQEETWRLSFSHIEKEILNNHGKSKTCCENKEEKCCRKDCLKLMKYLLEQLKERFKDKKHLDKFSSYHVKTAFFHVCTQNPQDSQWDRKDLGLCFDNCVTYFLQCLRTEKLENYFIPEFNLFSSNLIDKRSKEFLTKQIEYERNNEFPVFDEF
Experimental: Panel A is an image of a western blot of the stabilization measure; panel B is a bar graph of the stabilization measure. Heat treatment was conducted at 51.5 ° C.
as §5

[12] = biological target: T1, cGAS; assay: Transcreener cGAS enzymatic assay (FP); assay type: biochemical
Method in brief: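 Human cGAS (30 nm) inhibition, 60 min reactions, FP read-out, standard conditions 100 μM ATP and GTP plus 62.5 nM bp ISD. Also run at 1 mM ATP and GTP (physiological), with 200 μM MnCl2, and with mouse cGAS under standard conditions; IC50 reported.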

[13] = test system: TLR4 pathway; assay: Reporter gene assay NFKB (TLR4); assay type: cell-based; settings: concentrations as high as 100 μM
Experimental: as §5, §6

[14] = biological target: mouse cGAS (Mus musculus, UniProt Q8C6L5); assay: Transcreener cGAS enzymatic assay with mouse cGAS; assay type: biochemical; settings: standard conditions, read-out: IC50 with mcGAS
Chain of mouse cGAS (Q8C6L5 whole entry): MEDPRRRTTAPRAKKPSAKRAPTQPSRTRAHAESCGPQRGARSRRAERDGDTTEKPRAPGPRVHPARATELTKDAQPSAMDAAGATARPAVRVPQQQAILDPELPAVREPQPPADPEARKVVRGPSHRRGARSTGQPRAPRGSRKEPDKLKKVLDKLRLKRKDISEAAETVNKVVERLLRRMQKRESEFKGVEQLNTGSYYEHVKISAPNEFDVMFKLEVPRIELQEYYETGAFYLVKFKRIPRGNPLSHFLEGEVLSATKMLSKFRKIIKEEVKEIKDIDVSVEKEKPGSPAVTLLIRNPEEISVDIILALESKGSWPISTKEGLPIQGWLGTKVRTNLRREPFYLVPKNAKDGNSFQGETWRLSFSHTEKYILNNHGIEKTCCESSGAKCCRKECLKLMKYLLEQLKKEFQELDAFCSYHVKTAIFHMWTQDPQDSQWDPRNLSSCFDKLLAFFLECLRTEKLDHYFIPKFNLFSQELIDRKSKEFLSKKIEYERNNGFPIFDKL
Experimental: Structural, biochemical and biophysical analysis and selectivity profiling: Potency and MOA studies, including Mn^2+ sensitivity, were performed using the Transcreener cGAS enzymatic assay, which is manufactured at BellBrook Labs (Fitchburg, Wisconsin, USA). This homogenous cGAS enzymatic assay was developed with fluorescence polarization (FP) and time-resolved Forster resonance energy transfer (TR-FRET) readouts, as described in International Patent Publication WO 2020/142729, incorporated by reference herein in its entirety. Plates are read on a PHERAstar FSX multimode reader (BMG). The compounds of the disclosure were tested for inhibition of cGAS ([…]) using this cGAS enzymatic assay under standard conditions (100 μM ATP and GTP, 62.5 nM bp ISD, 60 minute reactions), high ATP and GTP (1 mM) to mimic physiological conditions, in the presence of 200 μM MnCl2, and with mouse cGAS under standard conditions.
Potency with mcGAS is important for vivo efficacy studies and represents a challenge for lead development because mcGAS shares only 57% amino acid identity with human enzyme and there are significant functional differences.

[15] = test system: MDR1 (P-glycoprotein); assay: MDCK-MDR1 permeability A→B; assay type: in vitro ADME, Canine; settings: dog; MDCK cells expressing human MDR1, A→B; read-out: MDCK-MDR Permeability A→B
Method in brief: as §4

[16] = test system: IFN-β production in PBMCs; assay: IFNβ ELISA in human primary PBMCs; assay type: cell-based; settings: PBMC
From the text: Cellular assays: The human monocyte cell line THP-1 and human primary PBMCs were used to evaluate the cellular activity of compounds with good biochemical potency. These cells produce a robust cGAS/STING-dependent type I IFN response when stimulated with dsDNA and other pathogen-associated molecular patterns, which was detected using a standard ELISA for IFNβ (R&D Systems). The TBK1 inhibitor, BX-795, which acts downstream of cGAS/STING, was used as a probe.
The ICso values for IFNB ELISA stimulated with THP-1, PBMC, DNA, and cGAMP were determined for several exemplary compounds of the invention, and are provided in Table 3 where A represents <1 μM; B represents 1-2.5 μM; C represents 2.5-10 μM; D represents 10-20 μM; and E represents >20 μM.
as §6

[17] = Metabolic stability in human hepatocytes; assay type: in vitro ADME; settings: read-out: Human MS Stability t1/2
Experimental: as §1, §3, §2

[18] = high ATP and GTP (1 mM) to mimic physiological conditions, read-out: IC50 FP Physiological
[19] = standard conditions: 100 μM ATP and GTP, 62.5 nM bp ISD, 60 minute reactions, read-out: IC50 FP Standard

Structure (SMILES)	half-life [1] [h]	IC50 [2] [nM]	half-life [3] [h]	solubility kinetic [4] [µM]	MDCK-MDR Permeability A→B [5]	Inhibition of RIG-1 signaling [6]	Cytotoxicity [7]	Inhibition of isolated Luc [8] [%]	half-life [9] [h]	Inhibition of isolated SEAP reporter enzyme [10]	Stabilization of cGAS in cells (CETSA) [11]	IC50 [12, 18] [nM]	IC50 [12, 19] [nM]	Inhibition of TLR4 signaling [13]	IC50 [14] [nM]	Papp A→B [15] [×10⁻⁶ cm/s]	IC50 [16] [nM]	half-life [17] [h]
Cc1nc(N2C[C@@H](CC(=O)Nc3ccncc3)C[C@H]2C(=O)O)c2oc3ccccc3c2n1 [Compound A, (2S,4R)-1-(2-methylbenzofuro[3,2-d]pyrimidin-4-yl)-4-(2-oxo-2-(pyridine-4-ylamino)ethyl)pyrrolidine-2-carboxylic acid, reference compound]	1.67 to 3.33	> 20000	1.67 to 3.33	542 (≈ 234 µg/mL)	C (C represents <1 cm/ss×10^−6)													
Cc1nc(N2C[C@@H](CC(=O)Nc3ccc4ncsc4c3)C[C@H]2C(=O)O)c2oc3ccccc3c2n1 [Compound 4, (2S,4R)-4-(2-(benzo[d]thiazol-6-ylamino)-2-oxyethyl)-1-(2-methylbenzofuro[3,2-d]pyrimidin-4-yl)pyrrolidine-2-carboxylic acid]		> 20000		488 (≈ 238 µg/mL)		no detectable inhibition	no cytotoxicity	50	1.67 to 3.33	appreciably	stabilized cGAS	< 200	50 to 100	no detectable inhibition	8300	1 to 5		
Cc1nc(N2C[C@@H](CC(=O)Nc3cccc(-c4ccccc4)c3)C[C@H]2C(=O)O)c2oc3ccccc3c2n1 [Compound 36, (2S,4R)-4-(2-([1,1′-biphenyl]-3-ylamino)-2-oxoethyl)-1-(2-methylbenzofuro[3,2-d]pyrimidin-4-yl)pyrrolidine-2-carboxylic acid]		1000 to 2500		155 (≈ 78.5 µg/mL)					> 5			200 to 500	50 to 100			1 to 5	1000 to 2500	> 5

— patent US20240174684A1, “INHIBITORS OF cGAS ACTIVITY AS THERAPEUTIC AGENTS” (BELLBROOK LABS, LLC, priority 2021, published 2024)
